pIC50: −log10 of the molar value.
Columns and labels:
HIV protease = target: T1, HIV protease (Human immunodeficiency virus type 1 group M subtype B, UniProt P12497); assay: Assay for inhibition of microbial expressed HIV protease (peptide substrate, HPLC); type: biochemical; conditions: protease expressed in Eschericia coli, 50 mM Na acetate, pH 5.5, 30° C., 1 hour
T1 construct: the protease expressed in Eschericia coli; made in house; host or cells: Escherichia coli
Protocol: Assay for Inhibition of Microbial Expressed HIV Protease
Inhibition studies of the reaction of the protease expressed in Eschericia coli with a peptide substrate [Val-Ser-Gln-Asn(betanapthyl)Ala-Pro-Ile-Val, 0.5 mg/mL at the time the reaction is initiated] were in 50 mM Na acetate, pH 5.5, at 30° C. for 1 hour. Various concentrations of inhibitor in […] DMSO were added to […] of the peptide solution in water. The reaction is initiated by the addition of […] of 0.33 nM protease (0.11 ng) in a solution of 0.133M Na acetate pH 5.5 and 0.1% bovine serum albumin. The reaction was quenched with 160 ml of 5% phosphoric acid. Products of the reaction were separated by HPLC (VYDAC wide pore 5 cm C-18 reverse phase, acetonitrile gradient, 0.1% phosphoric acid). The extent of inhibition of the reaction was determined from the peak heights of the products.

HIV-1 strain IIIb = assay: Inhibition of virus spread in HIV-infected MT-4 cells (p24 antigen); type: cell-based; conditions: Human immunodeficiency virus 1, MT4, 72 h; HIV-1 IIIb-infected MT-4 cells; 3 days incubation; HIV p24 antigen in supernatant; read-out: CIC95
Protocol: INHIBITION OF VIRUS SPREAD
A. Preparation of HIV-infected MT-4 cell Suspension.
MT cells were infected at Day 0 at a concentration of 250,000 per ml with a 1:1000 dilution of HIV-1 strain IIIb stock (final 125 pg p24/ml; sufficient to yield ≤1% infected cells on day 1 and 25-100% on day 4). Cells were infected and grown in the following medium: RPMI 1640 (Whittaker BioProducts), 10% inactivated fetal bovine serum, 4 mM glutamine (Gibco Labs) and 1:100 Penicillin-Streptomycin (Gibco Labs).
The mixture was incubated overnight at 37° C. in 5% CO2 atmosphere.
B. Treatment with Inhibitors
A matrix of nanomolar range concentrations of the pairwise combinations was prepared. At Day 1, aliquots of […] of inhibitors were added to equal volumes of HIV-infected MT-4 cells (50,000 per well) in a 96-well microtiter cell culture plate. Incubation was continued for 3 days at 37° C. in 5% CO2 atmosphere.
C. Measurement of Virus Spread
Using a multichannel pipettor, the settled cells were resuspended and […] harvested into a separate microtiter plate. The supernatant was assayed for HIV p24 antigen.
The concentration of HIV p24 antigen was measured by an enzyme immunoassay,described as follows. Aliquots of p24 antigen to be measured were added to microwells coated with a monoclonal antibody specific for HIV core antigen. […]

Row | pIC50 (HIV protease) | SMILES | IC95 (HIV-1 strain IIIb) [µM]
1 | 8.22 to 9.00 | CC(C)(C)NC(=O)c1ccccc1C[C@@H](O)C[C@@H](Cc1ccccc1)C(=O)N[C@H]1c2ccccc2C[C@H]1O [Compound A] | 0.8
2 | 8.22 to 9.00 | Cc1ccc(C[C@@H](O)C[C@@H](Cc2ccccc2)C(=O)N[C@H]2c3ccccc3C[C@H]2O)c(C(=O)NC(C)(C)C)c1 [Compound C] | –
3 | 8.22 to 9.00 | CC(C)(C)NS(=O)(=O)c1ccccc1C[C@@H](O)C[C@@H](Cc1ccccc1)C(=O)N[C@H]1c2ccccc2C[C@H]1O [Compound B] | 1.5

— US5747540A, “HIV protease inhibitors useful for the treatment of AIDS” (Merck & Co., Inc., priority 1996, dated 1998)
